Laboratory results: patent publication US8067615B2, “Sulphonylpyrroles” (4SC AG, priority 2004, dated 2011)

Key:
[1] = test system: HeLa cervical carcinoma cells; assay: Cellular cytotoxicity assay (Alamar Blue / Resazurin); assay type: cell-based; settings: Homo sapiens, 48 hours incubation
Description: The anti-proliferative activity of the histone deacetylase inhibitory compounds as described herein, was evaluated with the HeLa cervical carcinoma cell line (ATCC CCL2) using the Alamar Blue (Resazurin) cell viability assay (O'Brien et al. Eur J Biochem 267, 5421-5426, 2000). Resazurin is reduced to the fluorescent resorufin by cellular dehydrogenase activity, correlating with viable, proliferating cells. Test compounds were dissolved as 10 mM solutions in dimethylsulfoxide (DMSO) and subsequently diluted in semi-logarithmic steps. HeLa cells were seeded into 96 well flat bottom plates at a density of 3000 cells per well in a volume of […] per well. 24 hours after seeding 1 μl each of the compound dilutions were added into each well of the 96 Well plate. Each compound dilution was tested as quadruplicates. Wells containing untreated control cells were filled with 200 μl DMEM medium containing 0.5% v:v DMSO. The cells were then incubated with the substances for 48 hours at 37° C. in a humidified atmosphere containing 5% carbon dioxide. To determine the viability of the cells, 20 μl of an Resazurin solution (Sigma; 90 mg/l) were added. After 4 hours incubation at 37° C. the fluorescence was measured at an […] of 544 nm and an emission of 590 nm. For the calculation of the cell viability the emission value from untreated cells was set as 100% viability and the emission rates of treated cells were set in relation to the values of untreated cells. Viabilities were expressed as % values. The corresponding IC50 values of the compounds for cytotoxic activity are determined from the concentration-effect curves by means of non-linear regression.

[2] = test system: histone H3K23 hyperacetylation in HeLa cervical carcinoma cells; assay: Cellular histone H3 hyperacetylation assay; assay type: cell-based; settings: Homo sapiens, 24 h with compound, read-out: Induction of histone H3K23 hyperacetylation EC50
Text: To assess the cellular efficacy of an histone deacetylase inhibitor in vitro, an assay was set up in black clear-bottom 96-well plates and optimized for use on the Cellomics “ArrayScan II” platform for a quantitative calculation of […] acetylation. The protocol uses a polyclonal rabbit antibody, specifically binding to acetylated lysine 23 of human histone H3 on fixed cells with an Alexa Fluor 488 labeled goat anti rabbit-IgG used for counterstaining (Braunger et al. AACR annual conference 2003, Abstract 4556). 5×10^3 HeLa cervical carcinoma cells/well (ATCC CCL-2) in 200 μl Dulbecco's modified Eagle's medium (DMEM) containing 10% fetal calf serum were seeded at day 1 in Packard view plates and incubated for 24 h under standard cell culture conditions. On day 2, 2 μl test compound (100× final concentration) was added and incubation continued for further 24 h. On day 3, the culture medium was discarded and attached cells fixed for 15 min at room temperature by addition of 100 μl fixation buffer (3.7% v:v formaldehyde in phosphate buffered saline/PBS). After discarding the fixation buffer and one wash with PBS, cells were permeabilized at room temperature by addition of 100 μl/well permeabilization buffer (30.8 mM NaCl, 0.54 mM Na2HPO4, 0.31 mM KH2PO4, 5% v:v Triton X-100) for 15 min at room temperature. After discarding the permeabilization buffer and addition of 100 μl/well blocking solution (PBS with 0.05% v:v Tween 20 and 5% w:v milk powder) for 30 min at room temperature, the 1st antibody (anti-K23 histone H3 antibody, Cell Signaling No. 9674) in blocking solution (50 μl/well) was added. After incubation for 1 h at 37° C., the wells were washed 5 times for 5 min at room temperature with wash buffer (PBS with 0.05% v:v Tween 20) before addition of the 2nd antibody (goat-anti-rabbit Alexa Fluor 488; MoBiTec No. A-11008) in blocking solution (50 μl/well). After further incubation for 30 min at 37° C., wells were washed 5 times for 5 min at RT with 100 μl wash buffer at room temperature. Finally, 100 μl/well PBS were added and image analysis performed on the Cellomics “ArrayScan II” platform. For calculation of EC50 values, the nuclear fluorescence in cells treated with and without a reference HDAC inhibitor like SAHA or NVP-LBH-589 were taken as a positive and negative control, respectively. For EC50 determination, the percentage of positive cells was determined and EC50 calculation done from concentration-effect curves by means of non-linear regression.

What does the source list for `Cc1ccc(S(=O)(=O)n2ccc(C=CC(=O)NO)c2)cc1` [Compound 1, (E)-N-Hydroxy-3-[1-(toluene-4-sulfonyl)-1-H-pyrrol-3-yl]-acrylamide]?
IC50 [1]: 0.8 to 21.6 µM; EC50 [2]: 2.15 to 51.3 µM

What does the source list for `O=C(/C=C/c1ccn(S(=O)(=O)Cc2ccccc2)c1)NO` [Compound 2, N-Hydroxy-3-(1-phenylmethanesulfonyl-1H-1-pyrrol-3-yl)-acrylamide]?
IC50 [1]: 0.8 to 21.6 µM; EC50 [2]: 2.15 to 51.3 µM

With `O=C(/C=C/c1ccn(S(=O)(=O)c2ccc(-c3ccccc3)cc2)c1)NO` [Compound 3, (E)-3-[1-(Biphenyl-4-sulfonyl)-1H-pyrrol-3-yl]-N-hydroxy-acrylamide] as the compound, how does the IC50 [1] read?
The IC50 was 0.8 to 21.6 µM.

What about the EC50 [2] of the same compound?
The EC50 was 2.15 to 51.3 µM.

For `CN(C)c1ccc(S(=O)(=O)n2ccc(C=CC(=O)NO)c2)cc1` [Compound 4, (E)-3-[1-(4-Dimethylamino-benzenesulfonyl)-1H-1-pyrrol-3-yl]-N-hydroxy-acrylamide], which IC50 [1] is on record?
The IC50 was 0.8 to 21.6 µM.

What about the EC50 [2] of the same compound?
Its EC50 is 2.15 to 51.3 µM.

Which results are given for `Nc1ccccc1NC(=O)C=Cc1ccn(S(=O)(=O)c2ccc(-c3ccccc3)cc2)c1` [Compound 7, (E)-N-(2-Amino-phenyl)-3-[1-(biphenyl-4-sulfonyl)-1H-1-pyrrol-3-yl]-acrylamide]?
IC50 [1]: 0.8 to 21.6 µM; EC50 [2]: 2.15 to 51.3 µM

Which IC50 [1] does the source give for `CN(C)c1ccc(S(=O)(=O)n2ccc(/C=C/C(=O)Nc3ccccc3N)c2)cc1` [Compound 8, (E)-N-(2-Amino-phenyl)-3-[1-(4-dimethylamino-benzenesulfonyl)-1H-pyrrol-3-yl]-acrylamide] here?
The IC50 was 0.8 to 21.6 µM.

What about the EC50 [2] of the same compound?
The EC50 was 2.15 to 51.3 µM.

Which results are given for `CN(CCc1cc2ccccc2[nH]1)Cc1ccc(S(=O)(=O)n2ccc(/C=C/C(=O)NO)c2)cc1` [Compound 9, (E)-N-Hydroxy-3-(1-[4-(([2-(1H-indol-2-yl)-ethyl]-methyl-amino)-methyl)-benzenesulfonyl]-1H-pyrrol-3-yl)-acrylamide]?
IC50 [1]: 0.07 to 5 µM; EC50 [2]: 2.15 to 51.3 µM

With `CN(C)Cc1ccc(S(=O)(=O)n2ccc(/C=C/C(=O)NO)c2)cc1` [Compound 10, (E)-3-[1-(4-Dimethylaminomethyl-benzenesulfonyl)-1H-pyrrol-3-yl]-N-hydroxy-acrylamide] as the compound, how does the IC50 [1] read?
Its IC50 is 0.07 to 5 µM.

What about the EC50 [2] of the same compound?
Its EC50 is 2.15 to 51.3 µM.

For `O=C(/C=C/c1ccn(S(=O)(=O)c2ccc(CNCc3cccnc3)cc2)c1)NO` [Compound 11, (E)-N-Hydroxy-3-[1-(4-{[(pyridin-3-ylmethyl)-amino]-methyl}-benzenesulfonyl)-1H-pyrrol-3-yl]-acrylamide], which IC50 [1] is on record?
The IC50 was 0.07 to 5 µM.

For `O=C(/C=C/c1ccn(S(=O)(=O)c2ccc(CNCc3c[nH]c4ccccc34)cc2)c1)NO` [Compound 12, (E)-N-Hydroxy-3-[1-(4-{[(1H-indol-3-ylmethyl)-amino]-methyl}-benzenesulfonyl)-1H-pyrrol-3-yl]-acrylamide], which IC50 [1] is on record?
The IC50 was 0.07 to 5 µM.

With `O=C(/C=C/c1ccn(S(=O)(=O)c2ccc(CNCc3ccccc3)cc2)c1)NO` [Compound 13, (E)-3-{1-[4-(Benzylamino-methyl)-benzenesulfonyl]-1H-pyrrol-3-yl}-N-hydroxy-acrylamide] as the compound, how does the IC50 [1] read?
Its IC50 is 0.07 to 5 µM.

With `CC(C)CNCc1ccc(S(=O)(=O)n2ccc(/C=C/C(=O)NO)c2)cc1` [Compound 14, (E)-N-Hydroxy-3-{1-[4-(isobutylamino-methyl)-benzenesulfonyl]-1H-pyrrol-3-yl}-acrylamide] as the compound, how does the IC50 [1] read?
The IC50 was 0.07 to 5 µM.

For `O=C(/C=C/c1ccn(S(=O)(=O)c2ccc(CNCc3ccc4[nH]ccc4c3)cc2)c1)NO` [Compound 15, (E)-N-Hydroxy-3-[1-(4-{[(1H-indol-5-ylmethyl)-amino]-methyl}-benzenesulfonyl)-1H-pyrrol-3-yl]-acrylamide], which IC50 [1] is on record?
The IC50 was 0.07 to 5 µM.

Which IC50 [1] does the source give for `O=C(/C=C/c1ccn(S(=O)(=O)c2ccc(CNCc3ccncc3)cc2)c1)NO` [Compound 16, (E)-N-Hydroxy-3-[1-(4-{[(pyridin-4-ylmethyl)-amino]-methyl}-benzenesulfonyl)-1H-pyrrol-3-yl]-acrylamide] here?
Its IC50 is 0.07 to 5 µM.

Which IC50 [1] does the source give for `NCc1ccc(S(=O)(=O)n2ccc(/C=C/C(=O)NO)c2)cc1` [Compound 17, (E)-3-[1-(4-Aminomethyl-benzenesulfonyl)-1H-pyrrol-3-yl]-N-hydroxy-acrylamide] here?
The IC50 was 0.07 to 5 µM.

What about the melting point of the same compound?
The melting point was 227 to 228.6 °C.

For `O=C(/C=C/c1ccn(S(=O)(=O)c2ccc(-c3ccncc3)cc2)c1)NO` [Compound 18, (E)-N-Hydroxy-3-[1-(4-pyridin-4-yl-benzenesulfonyl)-1H-pyrrol-3-yl]-acrylamide], which IC50 [1] is on record?
The IC50 was 0.07 to 5 µM.

And the melting point?
Its melting point is 219.3 to 221.4 °C.

Which results are given for `O=C(/C=C/c1ccn(S(=O)(=O)c2ccc(-c3cn[nH]c3)cc2)c1)NO` [Compound 19, (E)-N-Hydroxy-3-{1-[4-(1H-pyrazol-4-yl)-benzenesulfonyl]-1H-pyrrol-3-yl}-acrylamide]?
IC50 [1]: 0.07 to 5 µM; melting point: 203.8 to 211.9 °C

For `Nc1ccccc1NC(=O)/C=C/c1ccn(S(=O)(=O)c2ccc(-c3ccncc3)cc2)c1` [Compound 20, (E)-N-(2-Amino-phenyl)-3-[1-(4-pyridin-4-yl-benzenesulfonyl)-1H-pyrrol-3-yl]-acrylamide], which IC50 [1] is on record?
The IC50 was 0.07 to 5 µM.

What about the melting point of the same compound?
The melting point was 244.2 to 246.5 °C.

Which IC50 [1] does the source give for `Nc1ccccc1NC(=O)/C=C/c1ccn(S(=O)(=O)c2ccc(-c3cccnc3)cc2)c1` [Compound 21, (E)-N-(2-Amino-phenyl)-3-[1-(4-pyridin-3-yl-benzenesulfonyl)-1H-pyrrol-3-yl]-acrylamide] here?
The IC50 was 0.07 to 5 µM.

What about the melting point of the same compound?
Its melting point is 199.7 to 202.3 °C.

With `Nc1ccccc1NC(=O)C=Cc1ccn(S(=O)(=O)c2ccc(-c3cn[nH]c3)cc2)c1` [Compound 22, (E)-N-(2-Amino-phenyl)-3-{1-[4-(1H-1-pyrazol-4-yl)-benzenesulfonyl]-1H-pyrrol-3-yl}-acrylamide] as the compound, how does the IC50 [1] read?
The IC50 was 0.07 to 5 µM.

And the melting point?
Its melting point is 232.3 to 240.9 °C.

Which IC50 [1] does the source give for `O=C(/C=C/c1ccn(S(=O)(=O)c2cccc(-c3ccccc3)c2)c1)NO` [Compound 23, (E)-3-[1-(Biphenyl-3-sulfonyl)-1H-pyrrol-3-yl]-N-hydroxy-acrylamide] here?
The IC50 was 0.07 to 5 µM.

And the melting point?
The melting point was 114 to 159.4 °C.

For `O=C(/C=C/c1ccn(S(=O)(=O)c2ccc(-c3ccccn3)s2)c1)NO` [Compound 24, (E)-N-Hydroxy-3-[1-(5-pyridin-2-yl-thiophene-2-sulfonyl)-1H-pyrrol-3-yl]-acrylamide], which IC50 [1] is on record?
Its IC50 is 0.07 to 5 µM.

With `O=C(/C=C/c1ccn(S(=O)(=O)c2ccc(-n3cccn3)cc2)c1)NO` [Compound 25, (E)-N-Hydroxy-3-[1-(4-pyrazol-1-yl-benzenesulfonyl)-1H-pyrrol-3-yl]-acrylamide] as the compound, how does the IC50 [1] read?
Its IC50 is 0.07 to 5 µM.

What about the melting point of the same compound?
The melting point was 160.7 to 166.6 °C.

Which IC50 [1] does the source give for `Nc1ccccc1NC(=O)/C=C/c1ccn(S(=O)(=O)c2ccc(-c3ccccn3)s2)c1` [Compound 26, (E)-N-(2-Amino-phenyl)-3-[1-(5-pyridin-2-yl-thiophene-2-sulfonyl)-1H-pyrrol-3-yl]-acrylamide] here?
The IC50 was 0.07 to 5 µM.

With `O=C(/C=C/c1ccn(S(=O)(=O)c2ccc(CN3CCOCC3)cc2)c1)NO` [Compound 27, (E)-N-Hydroxy-3-[1-(4-morpholin-4-ylmethyl-benzenesulfonyl)-1H-pyrrol-3-yl]acrylamide] as the compound, how does the IC50 [1] read?
Its IC50 is 0.07 to 5 µM.

And the melting point?
Its melting point is 168 to 170 °C.

And the EC50 [2]?
Its EC50 is 2.15 to 51.3 µM.

For `O=C(/C=C/c1ccn(S(=O)(=O)c2ccc(CN(CCO)CCc3cc4ccccc4[nH]3)cc2)c1)NO` [Compound 28, (E)-N-Hydroxy-3-{1-[4-({(2-hydroxy-ethyl)-[2-(1H-indol-2-yl)-ethyl]-amino}-methyl)-benzenesulfonyl]-1H-pyrrol-3-yl}-acrylamide], which IC50 [1] is on record?
The IC50 was 0.07 to 5 µM.
